Series [1] relates to LX-2 human hepatic stellate cell line. Briefly: Real-time cell proliferation assay (xCELLigence). Particulars: for EC50: read-out: EC50, LX-2 cell proliferation, xCELLigence SP, 3000 cells per well, serum-free medium, single treatment, proliferation measured 4 days after treatment, relative to scrambled peptide control GSP, variable slope dose-response fit, six replicates per treatment; for Proliferative response of LX-2 cells at concentrations up to 400 nM: 4 days after single treatment, relative to GSP, ANOVA against peptide control. As for the experimental part: Real-time cell proliferation assays using xCELLigence technology were performed to assess the effects of GRN-P4A isomers and the mutant peptide GRN-L1m on the human hepatic stellate cell line LX-2.
Figure 7 Cell proliferation assay of GRN-P4A isomers and GRN-L1m on human hepatic stellate cells (LX-2). The five peptides were tested across a concentration range of 0.16 nM to 800 nM using the LX-2 human hepatic stellate cell line. Two negative controls were included: serum-free media (SFM) and a scrambled GRN-P4A peptide (GSP). The graphs display variable slope dose–response curves fitted to proliferation data measured 4 days after a single treatment application. […] Proliferation is expressed relative to the scrambled peptide control (GSP) and presented as mean ± SEM. Statistical significance was assessed using one-way ANOVA against the peptide control. ∗ = […], ∗∗ = p < 0.01, ∗∗∗ = p < 0.001, ∗∗∗∗ = p < 0.0001.
The LX-2 human hepatic stellate cell line was generously donated by Dr Lionel Hebbard. Cells were cultured and maintained in Dulbecco’s Modified Eagle Medium/Nutrient Mixture F-12 (DMEM/F12) with GlutaMAX (Gibco) with 2 × antibiotic/antimycotic solution (penicillin, streptomycin, and amphotericin B), supplemented with 2% fetal bovine serum (FBS) (Gibco), at 37°C and 5% CO2. For the negative control, cells were treated with scrambled granulin peptide (GSP) or serum free media diluent. Dried peptide powder was resuspended in Milli-Q water to 170 μM and diluted in serum-free DMEM/F12 media.
Cell proliferation was monitored in real time using the xCELLigence SP system (ACEA Biosciences), following previously established method ([37]). LX2 cells were seeded into a 96-well xCELLigence E-plate (Agilent) at a density of 3000 cells per well in 150 μl of medium, and placed in the xCELLigence system at 37°C with 5% CO2, for overnight monitoring ([38]). Treatments were applied in serum-free medium at 20 μl per well, achieving final concentrations of […] to 800 nM, with six replicates per treatment. The cell index (CI) was continuously monitored using the Real-Time Cell Analysis (RTCA) software (Agilent), with measurements taken every hour over 6 days following treatment. Cell indices were normalized to the baseline values prior to treatment, and cell proliferation was expressed as the relative number of cells compared to the negative control GRN-scrambled peptide (GSP). Statistical analysis was conducted using two-way ANOVA test with Holm-Sidak’s correction comparing controls to treatments at each timepoint with GraphPad Prism 9.3.1 (www.graphpad.com).

Series [2] in a line: NMR at three temperatures to assess interconversion of isomer 1 into isomer 2. The class given is physicochemical. Particulars: αH secondary shifts at 283 K, 290 K and 310 K, 0.2 mM peptide in water/D2O. As for the experimental part:
NMR spectra of isomer 1 were recorded at the three different temperatures of 290 K (standard conditions), 310 K (physiological temperature), and 283 K (lower temperature) to assess potential interconversion into isomer 2, the major oxidation product.
Lyophilized peptides were rehydrated in a mixture of 500 μl water and 50 μl D2O, to obtain a final concentration of 0.2 mM. NMR spectra were recorded at temperatures of 283, 290 and 310 K using a 600 MHz Bruker Avance III spectrometer (Bruker) equipped with a cryoprobe. Chemical shifts were referenced to external DSS (sodium trimethylsilylpropanesulfonate). Two-dimensional spectra included [^1H,^1H]-TOCSY, [^1H,^1H]-H/D exchange TOCSY, [^1H,^1H]-NOESY, [^1H,^1H]-COSY, [^1H,^1H]-exclusive correlation spectroscopy, [^1H,^13 C]-HSQC, and [^1H,^15 N]-HSQC with TOCSY and NOESY mixing times of 80 ms and 200 ms, respectively. NMR data processing and analysis were performed using TopSpin (Bruker), and peak assignments were made using CcpNMR Analysis (Collaborative Computing Project for NMR) based on the method outlined by Wuthrich ([28], [29]). Backbone torsion-angle restraints for phi and psi were predicted from ^1H and ^13C chemical-shift analyses, were predicted using TALOS-N ([30]). […] The αH secondary shifts were determined by subtracting random coil ^1H NMR chemical shifts ([19]) from the experimental αH chemical shifts. […]

In series [3] the test system is wound healing in a mouse model. Particulars: compared with Regranex; cited from earlier work. An excerpt: This study highlights the structural complexity and bioactivity of isomers in disulfide-rich peptides, with a focus on GRN-P4A. GRN-P4A is a mutant peptide derived from Ov-GRN12 − 35_3s, a truncated form of the liver fluke granulin Ov-GRN-1, known for its potent wound healing properties.

Positions of bridges follow the written chain, without caps; N, C: chain ends. Residues, ends and D or L forms follow the SMILES beside them. No end group written: not given here.

`CC(C)C[C@@H]1NC(=O)CNC(=O)[C@H](CCCNC(=N)N)NC(=O)[C@@H]2CSSC[C@@H](C(=O)O)NC(=O)[C@H](CSSC[C@@H]3NC(=O)[C@H]([C@@H](C)O)NC(=O)[C@H](Cc4ccc(O)cc4)NC(=O)[C@H](C(C)C)NC(=O)[C@H](C)NC(=O)[C@H](CC(=O)O)NC(=O)[C@@H]4CCCN4C(=O)[C@@H](N)CSSC[C@H](NC(=O)[C@H]([C@@H](C)O)NC(=O)[C@H](CCC(N)=O)NC(=O)CNC(=O)[C@@H]4CCCN4C(=O)[C@H](CCCNC(=N)N)NC3=O)C(=O)N2)NC(=O)CNC(=O)[C@H](Cc2ccc(O)cc2)NC(=O)CNC(=O)[C@H](Cc2c[nH]cn2)NC1=O` (single isomer, unassigned) [GRN-P4A isomer 2]: in series [1] (LX-2 cells), the EC50 was 93 nM.

On to `CC(C)C[C@@H]1NC(=O)CNC(=O)[C@H](CCCNC(=N)N)NC(=O)[C@@H]2CSSC[C@@H](C(=O)O)NC(=O)[C@H](CSSC[C@@H]3NC(=O)[C@H]([C@@H](C)O)NC(=O)[C@H](Cc4ccc(O)cc4)NC(=O)[C@H](C(C)C)NC(=O)[C@H](C)NC(=O)[C@H](CC(=O)O)NC(=O)CNC(=O)[C@@H](N)CSSC[C@H](NC(=O)[C@H]([C@@H](C)O)NC(=O)[C@H](CCC(N)=O)NC(=O)CNC(=O)[C@@H]4CCCN4C(=O)[C@H](CCCNC(=N)N)NC3=O)C(=O)N2)NC(=O)CNC(=O)[C@H](Cc2ccc(O)cc2)NC(=O)CNC(=O)[C@H](Cc2c[nH]cn2)NC1=O` [GRN-L1m] (H-CGDAVYTCRPGQTCCRGLHGYGCC-OH; disulfide 1-14, 8-23, 15-24), for which the EC50 in series [1] (LX-2 cells) worked out at 318 nM.

Regarding “CPDAVYTCRPGQTCCRGLHGYGCC (also: bicyclic or more (positions not given here)) [GRN-P4A isomer 1, Fully oxidized GRN-P4A topological isomer eluting first in RP-HPLC, mini-granulin fold]”, the “Proliferative response of LX-2 cells at concentrations up to 400 nM” value (“Proliferative response of LX-2 cells” below) is “did not produce a statistically significant proliferative response” in series [1] (xCELLigence) and “did not produce a statistically significant response” in series [1] (xCELLigence, listed as isomer 1). For the same compound, the results for the “Conformational stability / interconversion into isomer 2 with temperature” value in series [2] (listed as Isomer 1) and in series [2] (listed as isomer 1) were “retained its structure across all tested temperatures” and “no evidence of interconversion”, respectively.

On to “CPDAVYTCRPGQTCCRGLHGYGCC (also: bicyclic or more (positions not given here)) [GRN-P4A isomer 3]”, for which the Cytotoxicity entry in series [1] (LX-2 cells, xCELLigence, statement in the Discussion, likely due to peptide aggregation) was “displayed cytotoxicity”. In addition, in series [1] (xCELLigence, listed as isomer 3), the “Proliferative response of LX-2 cells” value is “did not produce a statistically significant response”.

As to “CPDAVYTCRPGQTCCRGLHGYGCC (also: bicyclic or more (positions not given here)) [GRN-P4A isomer 4]”, the “Cell proliferation at higher concentrations” value in series [1] (LX-2 cells, xCELLigence, statement in the Discussion, tested up to 800 nM) was “promoted cell proliferation at higher concentrations”. Besides, in series [1] (xCELLigence, listed as isomer 4), the “Proliferative response of LX-2 cells” value was “did not produce a statistically significant response”.

Turning to “CPDAVYTCRPGQTCCRGLHGYGCC (also: bicyclic or more (positions not given here)) [GRN-P4A, 24-residue peptide containing three disulfide bonds engineered from liver-fluke granulin Ov-GRN-1]”, the “Wound healing activity in a mouse model” value in series [3] is recorded as “enhanced wound healing activity”.
